According to patent US10968266B2, “GIP peptide analogues” (University of Copenhagen, priority 2014, dated 2021):

Columns and labels:
perfused rat pancreata = test: Somatostatin secretion from isolated perfused rat pancreas; conditions: 1 nM hGIP or 100 nM GIP(3-30), 7 mM glucose
Experimental: Non-fasted rats were anaesthetized with an IP injection of Hypnorm/Dormicum and the pancreas was dissected and perfused in situ. […] All other aortic branches were ligated. The venous effluent was collected for 1 min intervals via an obstructing cannula inserted into the portal vein, and stored at −20° C. until analysis. The flow rate was kept constant at 4 ml/min. The perfusion medium was continuously gassed with a 95% O2/5% CO2 mixture to achieve pH 7.4, and maintained at 37° C. during the entire experiment.
Pancreatic somatostatin concentrations in venous effluent were analysed by RIA. Somatostatin immunoreactivity was determined using antiserum 1758, which was raised in rabbits against synthetic cyclic somatostatin and recognizes both somatostatin-14 and somatostatin-28 [37, 38].

human GIP receptor [1] = biological target: T1, human GIP receptor (Homo sapiens, UniProt P48546); test: Competitive binding assay with 125I-labelled GIP radioligands, COS-7 cells transfected with human GIP receptor (Example 7); conditions: for Competitive binding fold (fold change of GIP(1-30)NH2 affinity): radioligand 125I-GIP(1-42); for Competitive binding fold (fold change of GIP(1-30)NH2 affinity) / fold change GIP(1-30)NH2: relative to GIP(1-30)NH2
T1 construct: host or cells: COS-7 cells, transient transfection (calcium phosphate precipitation), pCMV-Script vector
T1 sequence (P48546 22-466): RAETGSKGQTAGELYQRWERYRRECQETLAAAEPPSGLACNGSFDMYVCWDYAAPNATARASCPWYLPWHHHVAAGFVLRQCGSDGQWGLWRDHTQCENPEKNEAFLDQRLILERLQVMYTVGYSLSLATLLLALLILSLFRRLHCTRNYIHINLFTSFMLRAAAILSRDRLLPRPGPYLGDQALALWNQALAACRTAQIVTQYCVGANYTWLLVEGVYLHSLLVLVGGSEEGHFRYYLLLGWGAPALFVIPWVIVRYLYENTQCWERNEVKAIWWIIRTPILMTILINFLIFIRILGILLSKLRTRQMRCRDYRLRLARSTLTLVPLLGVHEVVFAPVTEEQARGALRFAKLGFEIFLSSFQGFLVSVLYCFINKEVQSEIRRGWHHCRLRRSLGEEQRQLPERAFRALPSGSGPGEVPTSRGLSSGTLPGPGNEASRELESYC
Experimental: Transfection of COS-7 cells was performed using the calcium phosphate precipitation method with chloroquine addition as previously described (Kissow et al., 2012). […] Nonspecific binding was determined as the binding of radioligand to untransfected cells. All determinations were made in duplicates, and all experiments repeated at least three times. The samples were analyzed for radioactivity using a Wallac Wizard 1470 Gamma Counter (GMI Inc., Minnesota, USA). The number “n” refers to individual experiments with separate transfections although from same cell line. IC50, EC50, and Kd/Ki values were determined by nonlinear regression. […] Statistical analyses (unpaired t-tests) of two parameters were also performed with GraphPad Prism 6.0. The calculations of Bmax and Ki values were based on the formula for one class of binding sites in homologous competition binding studies and the Cheng Prussoffs formula, respectively (DeBlasi et al., 1989). Kd is the dissociation constant determined by homologous receptor binding. […] Schild plots were performed with log (DR-1) (ordinate) and log(antagonist concentration) (abscissa) to estimate the slopes and Ki values (Lazareno and Birdsall, 1993).

human GIP receptor [2] = biological target: T1, human GIP receptor; test: cAMP accumulation assay (agonism, antagonism, Schild analysis), COS-7 cells transfected with human GIP receptor (Example 7); format: cell-based; conditions: for Slope of Schild plot: GIP(1-42) dose-response curves with fixed antagonist concentrations
Experimental: COS-7 cells were grown in 10% CO2 and at 37° C. in Dulbecco's modified Eagle's medium 1885 supplemented with 10% fetal bovine serum, 2 mM glutamine, 180 units/ml penicillin, and 45 µg/ml streptomycin. Transfection of COS-7 cells was performed using the calcium phosphate precipitation method with chloroquine addition as previously described (Kissow et al., 2012).
Two days after transfection the cells were washed once with HEPES buffered saline (HBS) and incubated with HBS and 0.5 mM 3-isobutyl-1-methylxanthine (IBMX) for 30 minutes at 37° C. […] After ligand incubation, the HitHunter™ cAMP XS assay (an enzyme fragment complementation-based assay, DiscoveRx, Birmingham, United Kingdom) was carried out according to the manufacturer's instructions. All experiments were made in duplicates, and repeated at least three times. Luminescence was measured by Perkin Elmer™ EnVision 2104 Multilabled reader (Skovlunde, Danmark). In brief, the cells were lysed in the wells, the enzyme fragment-cAMP-antibody, an enzyme fragment and the enzyme substrates were added followed by 1 hour incubation at room temperature on shaker tray. The other enzyme fragment was added to the wells and incubated for 4 hours on shaker tray followed by measurements of luminescence. The ligand-induced cAMP competed with the binding of antibody to the first enzyme fragment and left the two fragments to fuse. The enzyme complex hydrolyzed the substrates and yielded luminescence. The number “n” refers to individual experiments with separate transfections although from same cell line.
IC50, EC50, and Kd/Ki values were determined by nonlinear regression. These, as well as maximal binding capacity (Bmax) values and Schild plot analysis were carried out with the GraphPad Prism 6.0 software (GraphPad, San Diego, Calif., USA) and Microsoft Excel™. Statistical analyses (unpaired t-tests) of two parameters were also performed with GraphPad Prism 6.0. The calculations of Bmax and Ki values were based on the formula for one class of binding sites in homologous competition binding studies and the Cheng Prussoffs formula, respectively (DeBlasi et al., 1989). Kd is the dissociation constant determined by homologous receptor binding. […] Schild plots were performed with log (DR-1) (ordinate) and log(antagonist concentration) (abscissa) to estimate the slopes and Ki values (Lazareno and Birdsall, 1993).

[3] = inhibition of GIP(1-42) at 50-80% of max receptor activation

SMILES: CC[C@H](C)[C@H](NC(=O)[C@H](CO)NC(=O)[C@H](Cc1ccc(O)cc1)NC(=O)[C@H](CC(=O)O)NC(=O)[C@H](CO)NC(=O)[C@@H](NC(=O)[C@H](Cc1ccccc1)NC(=O)[C@@H](NC(=O)CNC(=O)[C@H](CCC(=O)O)NC(=O)[C@H](C)NC(=O)[C@@H](N)Cc1ccc(O)cc1)[C@@H](C)O)[C@@H](C)CC)C(=O)N[C@@H](C)C(=O)N[C@@H](CCSC)C(=O)N[C@@H](CC(=O)O)C(=O)N[C@@H](CCCCN)C(=O)N[C@H](C(=O)N[C@@H](Cc1c[nH]cn1)C(=O)N[C@@H](CCC(N)=O)C(=O)N[C@@H](CCC(N)=O)C(=O)N[C@@H](CC(=O)O)C(=O)N[C@@H](Cc1ccccc1)C(=O)N[C@H](C(=O)N[C@@H](CC(N)=O)C(=O)N[C@@H](Cc1c[nH]c2ccccc12)C(=O)N[C@@H](CC(C)C)C(=O)N[C@@H](CC(C)C)C(=O)N[C@@H](C)C(=O)N[C@@H](CCC(N)=O)C(=O)N[C@@H](CCCCN)C(=O)NCC(=O)N[C@@H](CCCCN)C(=O)N[C@@H](CCCCN)C(=O)N[C@@H](CC(N)=O)C(=O)N[C@@H](CC(=O)O)C(=O)N[C@@H](Cc1c[nH]c2ccccc12)C(=O)N[C@@H](CCCCN)C(=O)N[C@@H](Cc1c[nH]cn1)C(=O)N[C@@H](CC(N)=O)C(=O)N[C@H](C(=O)N[C@H](C(=O)N[C@@H](CCC(N)=O)C(=O)O)[C@@H](C)O)[C@@H](C)CC)C(C)C)[C@@H](C)CC [GIP(1-42)]
- Somatostatin secretion induced by the peptide alone (perfused rat pancreata): robust somatostatin secretion

SMILES: CC[C@H](C)[C@H](NC(=O)[C@H](CO)NC(=O)[C@H](Cc1ccc(O)cc1)NC(=O)[C@H](CC(=O)O)NC(=O)[C@H](CO)NC(=O)[C@@H](NC(=O)[C@H](Cc1ccccc1)NC(=O)[C@@H](N)[C@@H](C)O)[C@@H](C)CC)C(=O)N[C@@H](C)C(=O)N[C@@H](CCSC)C(=O)N[C@@H](CC(=O)O)C(=O)N[C@@H](CCCCN)C(=O)N[C@H](C(=O)N[C@@H](Cc1c[nH]cn1)C(=O)N[C@@H](CCC(N)=O)C(=O)N[C@@H](CCC(N)=O)C(=O)N[C@@H](CC(=O)O)C(=O)N[C@@H](Cc1ccccc1)C(=O)N[C@H](C(=O)N[C@@H](CC(N)=O)C(=O)N[C@@H](Cc1c[nH]c2ccccc12)C(=O)N[C@@H](CC(C)C)C(=O)N[C@@H](CC(C)C)C(=O)N[C@@H](C)C(=O)N[C@@H](CCC(N)=O)C(=O)N[C@@H](CCCCN)C(N)=O)C(C)C)[C@@H](C)CC [GIP(5-30)NH2]
- Competitive binding fold (fold change of GIP(1-30)NH2 affinity) (human GIP receptor [1]): 6.6 fold
- Type of antagonism (Schild analysis) (human GIP receptor [2]): pure competitive antagonists
- Slope of Schild plot (human GIP receptor [2]): 1.1±0.04
- IC50 (human GIP receptor [2]; [3]): 11.9 nM

SMILES: CC[C@H](C)[C@H](NC(=O)[C@H](CO)NC(=O)[C@H](Cc1ccc(O)cc1)NC(=O)[C@H](CC(=O)O)NC(=O)[C@H](CO)NC(=O)[C@@H](NC(=O)[C@@H](N)Cc1ccccc1)[C@@H](C)CC)C(=O)N[C@@H](C)C(=O)N[C@@H](CCSC)C(=O)N[C@@H](CC(=O)O)C(=O)N[C@@H](CCCCN)C(=O)N[C@H](C(=O)N[C@@H](Cc1c[nH]cn1)C(=O)N[C@@H](CCC(N)=O)C(=O)N[C@@H](CCC(N)=O)C(=O)N[C@@H](CC(=O)O)C(=O)N[C@@H](Cc1ccccc1)C(=O)N[C@H](C(=O)N[C@@H](CC(N)=O)C(=O)N[C@@H](Cc1c[nH]c2ccccc12)C(=O)N[C@@H](CC(C)C)C(=O)N[C@@H](CC(C)C)C(=O)N[C@@H](C)C(=O)N[C@@H](CCC(N)=O)C(=O)N[C@@H](CCCCN)C(N)=O)C(C)C)[C@@H](C)CC [GIP(6-30)NH2, reference compound]
- fold change GIP(1-30)NH2 (human GIP receptor [1]; radioligand 125I-GIP(1-30)NH2): 3502 fold
- IC50 (human GIP receptor [1]; radioligand 125I-GIP(2-30)NH2): 340 nM
- fold change GIP(1-30)NH2 (human GIP receptor [1]; radioligand 125I-GIP(2-30)NH2): 707 fold
- IC50 (human GIP receptor [1]; radioligand 125I-GIP(3-30)NH2): 370 nM
- fold change GIP(1-30)NH2 (human GIP receptor [1]; radioligand 125I-GIP(3-30)NH2): 223 fold
- Slope of Schild plot (human GIP receptor [2]): 0.38±0.13
- IC50 (human GIP receptor [2]; [3]): 342 nM
- cAMP accumulation logIC50 ± SEM (antagonism) (human GIP receptor [2]; inhibition of GIP(1-42) at 50-80% of max receptor activation, given with negative sign): −6.47 ± 0.6

SMILES: CC[C@H](C)[C@H](NC(=O)[C@H](CO)NC(=O)[C@H](Cc1ccc(O)cc1)NC(=O)[C@H](CC(=O)O)NC(=O)[C@@H](N)CO)C(=O)N[C@@H](C)C(=O)N[C@@H](CCSC)C(=O)N[C@@H](CC(=O)O)C(=O)N[C@@H](CCCCN)C(=O)N[C@H](C(=O)N[C@@H](Cc1c[nH]cn1)C(=O)N[C@@H](CCC(N)=O)C(=O)N[C@@H](CCC(N)=O)C(=O)N[C@@H](CC(=O)O)C(=O)N[C@@H](Cc1ccccc1)C(=O)N[C@H](C(=O)N[C@@H](CC(N)=O)C(=O)N[C@@H](Cc1c[nH]c2ccccc12)C(=O)N[C@@H](CC(C)C)C(=O)N[C@@H](CC(C)C)C(=O)N[C@@H](C)C(=O)N[C@@H](CCC(N)=O)C(=O)N[C@@H](CCCCN)C(N)=O)C(C)C)[C@@H](C)CC [GIP(8-30)NH2]
- Competitive binding fold (fold change of GIP(1-30)NH2 affinity) (human GIP receptor [1]): 89 fold
- IC50 (human GIP receptor [2]; [3]): 133 nM
